Measurements taken from US8329913B2, “Carbazole derivative, solvate thereof, or pharmaceutically acceptable salt thereof” (Zeria Pharmaceutical Co., Ltd., priority 2004, dated 2012).

Each compound was assayed against T1, human PPARα (Homo sapiens, UniProt Q07869) (assay: Human PPARα agonist assay (luciferase reporter in transfected CV-1 cells)). Settings: at 1 μM test compound alone; 100% = 1 μM stimulant (GW7647) only; CV-1 cells expressing human PPARα and RXRα.
T1 construct: 1.6 kb of DNA fragment including human PPARα gene was collected from the gel; expressed in transfected cells; host or cells: CV-1 cells, transient transfection with pCI-hPPARa, pCI-hRXRa and the reporter pGL3-PPRE3-TK
T1 sequence (Q07869 1-468): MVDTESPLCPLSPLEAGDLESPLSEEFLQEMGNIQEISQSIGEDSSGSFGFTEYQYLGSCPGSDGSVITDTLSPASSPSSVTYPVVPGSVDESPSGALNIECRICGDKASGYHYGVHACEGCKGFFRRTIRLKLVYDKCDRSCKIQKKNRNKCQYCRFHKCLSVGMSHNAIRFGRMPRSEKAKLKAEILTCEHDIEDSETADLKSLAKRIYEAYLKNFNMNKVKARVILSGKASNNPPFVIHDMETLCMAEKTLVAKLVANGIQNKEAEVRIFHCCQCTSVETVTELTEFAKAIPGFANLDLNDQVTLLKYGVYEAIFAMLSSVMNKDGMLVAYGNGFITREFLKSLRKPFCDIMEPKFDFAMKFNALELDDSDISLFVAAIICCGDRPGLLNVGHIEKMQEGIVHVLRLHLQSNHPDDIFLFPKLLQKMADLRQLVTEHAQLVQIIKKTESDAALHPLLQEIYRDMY
T1 sequence (P19793 1-462 partner): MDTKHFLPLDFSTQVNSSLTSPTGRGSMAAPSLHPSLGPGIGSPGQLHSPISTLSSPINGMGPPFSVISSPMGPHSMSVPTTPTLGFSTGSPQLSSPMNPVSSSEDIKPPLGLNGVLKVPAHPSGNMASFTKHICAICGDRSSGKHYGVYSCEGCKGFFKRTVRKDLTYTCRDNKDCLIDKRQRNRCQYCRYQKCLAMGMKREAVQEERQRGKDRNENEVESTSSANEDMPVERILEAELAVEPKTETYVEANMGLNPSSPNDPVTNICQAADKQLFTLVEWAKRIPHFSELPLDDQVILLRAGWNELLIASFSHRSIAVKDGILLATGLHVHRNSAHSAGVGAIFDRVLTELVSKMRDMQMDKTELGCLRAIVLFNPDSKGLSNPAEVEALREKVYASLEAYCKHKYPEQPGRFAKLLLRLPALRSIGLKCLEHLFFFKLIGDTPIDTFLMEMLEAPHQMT
Assay type: cell-based
Procedure: CV-1 cells (96 well plate), where human PPARα and RXRα has expressed in the transient transfection of reporter plasmid (see reference 6a) were washed once with PBS (100 μL/well), and then supplemented with 100 μL/well of DMEM medium including 10% of fetal bovine serum to which test compounds at final concentrations of 10 nM, 30 nM, 100 nM, 300 nM, 1 μM, and 3 μM, as well as GW7647 (not limited to GW7647 shown as an example, but may be any PPARα agonist) at a final concentration of 1 nM as a stimulant were added, and incubated in a 5% CO2 incubator at 37° C. for 24 hours. After removing the medium, the CV-1 cells were washed once with PBS (100 μL/well), and supplemented with 60 μL/well of 1× Passive Lysis Buffer (manufactured by Promega Corporation). The CV-1 cells were incubated at room temperature for 30 minutes, stirred, and then by using Dual-Luciferase Reporter Assay System (manufactured by Promega Corporation), luciferase activities of firefly and renilla were measured using 1420 ARVO Multilabel Counter (manufactured by Wallac Oy). Also, the same experiments as that described above were respectively carried out for the cases where only the above-mentioned stimulant (10 nM, 100 nM, 1 μM) were used, where only the above-mentioned test compounds were used, or where neither was used (nonsupplemented), and luciferase activities of firefly and renilla were measured. Values corrected by dividing the firefly luciferase activities by the renilla luciferase activities were calculated as specific activities and used for evaluations. […]
Also, human PPARα agonist activities of the test compounds were evaluated by using a percentage (activity) where the specific activity when nonsupplemented is regarded as 0% and the specific activity in case only 1 μM stimulant was added is regarded as 100%, from the specific activity in case only the test compound is used.
CV-1 cells were cultured in DMEM medium (manufactured by Invitrogen Corporation) including 10% fetal bovine serum (manufactured by Dainippon Pharmaceutical Co., Ltd.) in 225T-Flask (manufactured by Corning Costar). The cells were detached by 0.5 g/L trypsin-0.2 g/L EDTA (ethylene diamine tetra-acetic acid) (manufactured by Invitrogen Corporation), and then suspended in the DMEM medium including 10% fetal bovine serum to a cell concentration of 2×10^5 cells/mL. Thereafter, the cells were seeded into 96 well plate at 2×10^4 cells/0.1 mL/well, incubated in the CO2 incubator at 37° C. overnight, and then the plasmids prepared by the above-mentioned reference 2a, reference 3a, and reference 4a were transfected into cells by using a lipofectamine reagent (manufactured by Invitrogen Corporation) according to the attached manual.
Namely, after CV-1 cells were cultured overnight, the cells were washed with PBS (100 μL/well). Thereafter the cells were incubated for 5 hours at 37° C./5% CO2 in the MEM medium (manufactured by Invitrogen Corporation) including 430 ng/mL of human PPARα expression plasmid (pCI-hPPARa) prepared by the reference 2a, 430 ng/mL of human RXRα expression plasmid (pCI-hRXRa) prepared by the reference 3a, and 140 ng/mL of the reporter plasmid (pGL3-PPRE3-TK) prepared by the reference 4a, 10 ng/mL of phRL-TK vector (manufactured by Promega Corporation) and 2 μL/mL of lipofectamine.

SMILES	Human PPARα agonist activities, Activity % (at 1 μM) [%]
COc1cc(Cn2c3ccccc3c3c(OC(C)C(=O)O)cccc32)ccc1OCc1nc(-c2ccccc2)oc1C (racemic) [Example 4, (±)-2-{9-[3-methoxy-4-((5-methyl-2-phenyl-oxazole-4-yl)methoxy)-benzyl]-9H-carbazole-4-yloxy}propionic acid]	21
CCC(Oc1cccc2c1c1ccccc1n2Cc1ccc(OCc2nc(-c3ccccc3)oc2C)c(OC)c1)C(=O)O (racemic) [Example 5, (±)-2-{9-[3-methoxy-4-((5-methyl-2-phenyl-oxazole-4-yl)methoxy)-benzyl]-9H-carbazole-4-yloxy}butyric acid]	27
COc1cc(Cn2c3ccccc3c3c(OCCC(C)C(=O)O)cccc32)ccc1OCc1nc(-c2ccccc2)oc1C (racemic) [Example 27, (±)-4-{9-[3-methoxy-4-((5-methyl-2-phenyl-oxazole-4-yl)methoxy)-benzyl]-9H-carbazole-4-yloxy}-2-methyl-butyric acid]	23
COc1cc(Cn2c3ccccc3c3c(OC(C)C(=O)[O-])cccc32)ccc1OCc1nc(-c2ccccc2)oc1C.[Na+] (racemic) [Example 30]	35
COc1cc(Cn2c3ccccc3c3c(OCCC(C)C(=O)[O-])cccc32)ccc1OCc1nc(-c2ccccc2)oc1C.[Na+] (racemic) [Example 37]	20
COc1cc(Cn2c3ccccc3c3c(OC(C)(C)C(=O)O)cccc32)ccc1OCc1nc(-c2ccccc2)oc1C [Example 3, 2-{9-[3-methoxy-4-((5-methyl-2-phenyl-oxazole-4-yl)methoxy)-benzyl]-9H-carbazole-4-yloxy}-2-methyl-propionic acid]	43
COc1cc(Cn2c3ccccc3c3c(OC(C)(C)C(=O)O)cccc32)ccc1OCc1nc(-c2ccco2)oc1C [Example 7, 2-{9-[4-((2-(furan-2-yl)-5-methyl-oxazole-4-yl)methoxy)-3-methoxy-benzyl]-9H-carbazole-4-yloxy-}2-methyl-propionic acid]	39
COc1cc(Cn2c3ccccc3c3c(OC(C)(C)C(=O)O)cccc32)ccc1OCc1nc(-c2cccs2)oc1C [Example 8, 2-{9-[3-methoxy-4-((5-methyl-2-(thiophene-2-yl)-oxazole-4-yl)methoxy)-benzyl]-9H-carbazole-4-yloxy}-2-methyl-propionic acid]	60
COc1cc(Cn2c3ccccc3c3c(OC(C)(C)C(=O)O)cccc32)ccc1OCc1nc(-c2ccncc2)oc1C [Example 9, 2-{9-[3-methoxy-4-((5-methyl-2-(pyridine-4-yl)-oxazole-4-yl)methoxy)-benzyl]-9H-carbazole-4-yloxy}-2-methyl-propionic acid]	27
Cc1oc(-c2ccccc2)nc1COc1ccc(Cn2c3ccccc3c3c(OC(C)(C)C(=O)O)cccc32)cc1 [Example 13, 2-methyl-2-{9-[4-((5-methyl-2-phenyl-oxazole-4-yl)methoxy)-benzyl]-9H-carbazole-4-yloxy}propionic acid]	37
COc1cc(Cn2c3ccccc3c3c(OC(C)(C)C(=O)O)cccc32)ccc1OCc1nc(-c2ccccc2)sc1C [Example 15, 2-{9-[3-methoxy-4-((5-methyl-2-phenyl-thiazole-4-yl)methoxy)-benzyl]-9H-carbazole-4-yloxy}-2-methyl-propionic acid]	73
COc1cc(Cn2c3ccccc3c3c(OC(C)(C)C(=O)O)cccc32)ccc1OCc1sc(-c2ccccc2)nc1C [Example 16, 2-{9-[3-methoxy-4-((4-methyl-2-phenyl-thiazole-5-yl)methoxy)-benzyl]-9H-carbazole-4-yloxy}-2-methyl-propionic acid]	56
COc1cc(Cn2c3ccccc3c3c(OCC(C)(C)C(=O)O)cccc32)ccc1OCc1nc(-c2ccccc2)oc1C [Example 22, 3-{9-[3-methoxy-4-((5-methyl-2-phenyl-oxazole-4-yl)methoxy)-benzyl]-9H-carbazole-4-yloxy}-2,2-dimethyl-propionic acid]	40
COc1cc(Cn2c3ccccc3c3c(OCC(C)(C)C(=O)O)cccc32)ccc1OCc1nc(-c2ccco2)oc1C [Example 23, 3-{9-[4-((2-(furan-2-yl)-5-methyl-oxazole-4-yl)methoxy)-3-methoxy-benzyl]-9H-carbazole-4-yloxy}-2,2-dimethyl-propionic acid]	69
COc1cc(Cn2c3ccccc3c3c(OCC(C)(C)C(=O)O)cccc32)ccc1OCc1nc(-c2cccs2)oc1C [Example 24, 3-{9-[3-methoxy-4-((5-methyl-2-(thiophene-2-yl)-oxazole-4-yl)methoxy)-benzyl]-9H-carbazole-4-yloxy}-2,2-dimethyl-propionic acid]	64
COc1cc(Cn2c3ccccc3c3c(OCC(C)(C)C(=O)O)cccc32)ccc1OCc1nc(-c2ccncc2)oc1C [Example 25, 3-{9-[3-methoxy-4-((5-methyl-2-pyridine-4-yl-oxazole-4-yl)methoxy)-benzyl]-9H-carbazole-4-yloxy}-2,2-dimethyl-propionic acid]	47
COc1cc(Cn2c3ccccc3c3c(OC(C)(C)C(=O)[O-])cccc32)ccc1OCc1nc(-c2ccccc2)oc1C.[Na+] [Example 28, sodium 2-{9-[3-methoxy-4-((5-methyl-2-phenyl-oxazole-4-yl)methoxy)-benzyl]-9H-carbazole-4-yloxy}-2-methyl-propionate]	56
CCC(Oc1cccc2c1c1ccccc1n2Cc1ccc(OCc2nc(-c3ccccc3)oc2C)c(OC)c1)C(=O)[O-].[Na+] (centres unmarked) [Example 31]	21
COc1cc(Cn2c3ccccc3c3c(OC(C)(C)C(=O)[O-])cccc32)ccc1OCc1nc(-c2cccs2)oc1C.[Na+] [Example 32]	66
COc1cc(Cn2c3ccccc3c3c(OCC(C)(C)C(=O)[O-])cccc32)ccc1OCc1nc(-c2ccccc2)oc1C.[Na+] [Example 34]	41
